According to patent publication US20100137230A1, “NEW PYRIDIN-2-ONE COMPOUNDS” (priority 2007, published 2010):

Columns and labels:
Assay type in all cases: cell-based
[1] = tested on: panel of Gram positive and Gram negative bacteria; assay: in vitro screens against a panel of Gram positive and Gram negative bacteria
Procedure: (§1) All examples were tested against a panel of Gram positive and Gram negative bacteria. […] Typical MIC ranges […] are: S. aureus (MRSA) 0.06-2 (linezolid 1-2, ciprofloxacin 0.5-32) S. aureus (MSSA) 0.06-2 (linezolid 1-2, ciprofloxacin 0.125-1) E. faecalis 0.02-1 (linezolid 0.5-2, ciprofloxacin 0.5-32) E. faecium 0.02-1 (linezolid 1-2, ciprofloxacin 0.25-32) S. pneumoniae 0.02-1 (linezolid 0.125-1, ciprofloxacin 1-4) However, cleavage of saccharide modified compounds such as compounds from example 1 and 2 by esterases and glucosidases that occur in human plasma yields the corresponding antibiotically active compounds.

[2] = tested on: E. faecium; assay: MIC against panel of bacteria: E. faecium
Procedure: as §1

[3] = tested on: S. aureus (MRSA); assay: MIC against panel of bacteria: S. aureus (MRSA)
Procedure: as §1

[4] = tested on: S. aureus (MSSA); assay: MIC against panel of bacteria: S. aureus (MSSA)
Procedure: as §1

[5] = tested on: E. faecalis; assay: MIC against panel of bacteria: E. faecalis
Procedure: as §1

[6] = tested on: S. pneumoniae; assay: MIC against panel of bacteria: S. pneumoniae
Procedure: as §1

Compound	activity in the in vitro screens [1]	Typical MIC ranges [2] [µg/mL]	Typical MIC ranges [3] [µg/mL]	Typical MIC ranges [4] [µg/mL]	Typical MIC ranges [5] [µg/mL]	Typical MIC ranges [6] [µg/mL]
CC(=O)NC[C@H]1CN(c2ccc(OCC3(OC(=O)[C@H]4O[C@@H](O)[C@H](O)[C@@H](O)[C@@H]4O)CCN(c4c(F)cn5c(=O)c(C(=O)O)cc(C6CC6)c5c4C)CC3)c(F)c2)C(=O)O1 [Example 1, 8-[4-{4-[(S)-5-(Acetylamino-methyl)-2-oxo-oxazolidin-3-yl]-2-fluoro-phenoxymethyl}-4-((2S,3S,4S,5R,6R)-3,4,5,6-tetrahydroxy-tetrahydro-pyran-2-carbonyloxy)-piperidin-1-yl]-1-cyclopropyl-7-fluoro-9-methyl-4-oxo-4H-quinolizine-3-carboxylic acid]	inactive					
CC(=O)NC[C@H]1CN(c2ccc(OCC3(OC(=O)[C@H](O)[C@@H](O)[C@H](O)[C@H](O)CO)CCN(c4c(F)cn5c(=O)c(C(=O)O)cc(C6CC6)c5c4C)CC3)c(F)c2)C(=O)O1 [Example 2, 8-[4-{4-[(S)-5-(Acetylamino-methyl)-2-oxo-oxazolidin-3-yl]-2-fluoro-phenoxymethyl}-4-((2R,3S,4R,5R)-2,3,4,5,6-pentahydroxy-hexanoyloxy)-piperidin-1-yl]-1-cyclopropyl-7-fluoro-9-methyl-4-oxo-4H-quinolizine-3-carboxylic acid]	inactive					
O=C(O)c1cn(C2CC2)c2cc(N3CCNCC3)c(F)cc2c1=O [ciprofloxacin]		0.25 to 32	0.5 to 32	0.125 to 1	0.5 to 32	1 to 4
CC(=O)NC[C@H]1CN(c2ccc(N3CCOCC3)c(F)c2)C(=O)O1 [linezolid]			1 to 2		0.5 to 2	125 to 1000
